From patent publication US9920069B2, “Compounds for treatment of fluoroquinolone-resistant bacteria” (The Board of Trustees of the University of Illinois, priority 2014, dated 2018)
Values after ≈ are worked out from the molar mass of the structure shown. Read-outs that look alike come from different tables or passages of the source.

Legend:
[1] = system: MRSA clinical isolate SAU.709; assay: microbe, parasite or virus in culture; format: cell-based, S. aureus; details: Staphylococcus aureus, read-out: MIC
Protocol: (§1) Susceptibility testing was performed in triplicate using the microdilution broth method as outlined by the Clinical and Laboratory Standards Institute CLSI^52. MH broth was used.

[2] = system: MRSA clinical isolate SAU.495; assay: microbe, parasite or virus in culture; format: cell-based, S. aureus; details: Staphylococcus aureus, read-out: MIC
Protocol: as §1

[3] = system: MRSA clinical isolate SAU.710; assay: microbe, parasite or virus in culture; format: cell-based, S. aureus; details: Staphylococcus aureus, read-out: MIC
Protocol: as §1

[4] = system: MRSA clinical isolate SAU.491; assay: microbe, parasite or virus in culture; format: cell-based, S. aureus; details: Staphylococcus aureus, read-out: MIC
Protocol: as §1

[5] = system: MRSA clinical isolate SAU.496; assay: microbe, parasite or virus in culture; format: cell-based, S. aureus; details: Staphylococcus aureus, read-out: MIC
Protocol: as §1

[6] = system: MRSA clinical isolate SAU.489; assay: microbe, parasite or virus in culture; format: cell-based, S. aureus; details: Staphylococcus aureus, read-out: MIC
Protocol: as §1

[7] = system: MRSA clinical isolate SAU.493; assay: microbe, parasite or virus in culture; format: cell-based, S. aureus; details: Staphylococcus aureus, read-out: MIC
Protocol: as §1

[8] = system: MRSA clinical isolate SAU.492; assay: microbe, parasite or virus in culture; format: cell-based, S. aureus; details: Staphylococcus aureus, read-out: MIC
Protocol: as §1

[9] = system: MRSA clinical isolate SAU.494; assay: microbe, parasite or virus in culture; format: cell-based, S. aureus; details: Staphylococcus aureus, read-out: MIC
Protocol: as §1

[10] = system: MRSA clinical isolate SAU.3017
Protocol: as §1

[11] = system: MRSA clinical isolate SAU.42; assay: MIC, microdilution broth; format: cell-based, S. aureus; details: Staphylococcus aureus
Protocol: as §1

[12] = system: MRSA clinical isolate SAU.3026; assay: MIC, microdilution broth; format: cell-based, S. aureus
Protocol: as §1

[13] = system: MRSA clinical isolate SAU.555; assay: MIC, microdilution broth; format: cell-based, S. aureus; details: Staphylococcus aureus
Protocol: as §1

[14] = system: MRSA clinical isolate SAU.2996; assay: MIC, microdilution broth; format: cell-based, S. aureus
Protocol: as §1

[15] = system: MRSA clinical isolate SAU.846; assay: MIC, microdilution broth; format: cell-based, S. aureus
Protocol: as §1

[16] = system: MRSA clinical isolate SAU.669; assay: MIC, microdilution broth; format: cell-based, S. aureus; details: Staphylococcus aureus
Protocol: as §1

[17] = system: MRSA clinical isolate SAU.419; assay: MIC, microdilution broth; format: cell-based, S. aureus
Protocol: as §1

[18] = system: MRSA clinical isolate SAU.3024; assay: MIC, microdilution broth; format: cell-based, S. aureus; details: Staphylococcus aureus
Protocol: as §1

[19] = system: MRSA clinical isolate SAU.1118; assay: MIC, microdilution broth; format: cell-based, S. aureus; details: Staphylococcus aureus
Protocol: as §1

[20] = system: MRSA clinical isolate SAU.447; assay: MIC, microdilution broth; format: cell-based, S. aureus; details: Staphylococcus aureus
Protocol: as §1

[21] = system: MRSA clinical isolate SAU.446; assay: MIC, microdilution broth; format: cell-based, S. aureus; details: Staphylococcus aureus
Protocol: as §1

[22] = system: MRSA clinical isolate SAU.3021; assay: MIC, microdilution broth; format: cell-based, S. aureus
Protocol: as §1

[23] = system: MRSA clinical isolate SAU.3025; assay: MIC, microdilution broth; format: cell-based, S. aureus; details: Staphylococcus aureus
Protocol: as §1

[24] = system: MRSA clinical isolate SAU.708; assay: microbe, parasite or virus in culture; format: cell-based, S. aureus; details: Staphylococcus aureus, read-out: MIC
Protocol: as §1

[25] = physchem; details: pH 7.4 PBS; three replicates ± SEM
Protocol: Enough PBS was added to make a 1 mg/mL solution. Compounds were then assessed by LC-MS and compared to a calibration curve to determine the solubility. […] Data shown is from three independent replicates±SEM. […] Between DMSO additions, the vial was vortexed and sonicated.
The compound was vortexed for ˜30 seconds before being placed into a bath sonicator (Cole Parmer, ultrasonic cleaner) for 1 h. […] The tubes were vortexed again for 30 s before being centrifuged at maximum speed (13,000×g) for 10 minutes. The supernatant was then filtered through a 0.22 μm syringe filter (Millipore Millex MP). […] Three independent replicates of each compound were performed. A calibration curve for each compound was generated from 1-400 μM by dissolving the compound in DMSO and making dilutions of the stock in DMSO. […] The concentration of the samples was calculated based on the calibration curves.

[26] = system: A. baumannii ATCC 19606; assay: microbe, parasite or virus in culture; format: cell-based; details: Acinetobacter baumannii, ATCC19606, gyrA none, parC none
Protocol: (§2) E. coli MG1655 and the ΔAcrB strain were obtained from Prof. Cari Vanderpool at UIUC.
as §1

[27] = system: E. coli ATCC 25922; assay: microbe, parasite or virus in culture; format: cell-based; details: Escherichia coli, ATCC25922, gyrA none, parC none
Protocol: as §2, §1

[28] = system: P. aeruginosa PAO1; assay: microbe, parasite or virus in culture; format: cell-based; details: Pseudomonas aeruginosa, gyrA none, parC none
Protocol: as §2, §1

[29] = system: VRE clinical isolates; assay: Panel of VRE clinical isolates (FIG. 2B); format: cell-based, Enterococcus; details: n=22, in words
[30] = system: A. baumannii KB349; assay: MIC, microdilution broth; format: cell-based; details: Acinetobacter baumannii
Protocol: as §2, §1

[31] = system: A. baumannii KB304; assay: MIC, microdilution broth; format: cell-based; details: Acinetobacter baumannii
Protocol: as §2, §1

[32] = system: Enterococcus ATCC 19433; assay: organism not typed; format: cell-based, E. faecalis; details: ATCC 19433, E. faecalis; gyrA WT, parC WT; read-out: MIC
[33] = physchem; details: organic solvent or mixture, thermodynamic from solid
[34] = system: VRE clinical isolate S234; assay: organism not typed; format: cell-based, E. faecalis; details: read-out: MIC
[35] = system: VRE clinical isolate S34; assay: organism not typed; format: cell-based, E. faecium
Protocol: (§3) QRDR mutations were determined as described in the text using primers (primer sequences can be found in Table 7).
as §1

[36] = system: VRE clinical isolate U63; assay: organism not typed; format: cell-based, E. faecium
Protocol: as §3, §1

[37] = system: VRE clinical isolate S235; assay: organism not typed; format: cell-based, E. faecium
Protocol: as §3, §1

[38] = system: VRE clinical isolate U563; assay: organism not typed; format: cell-based, E. faecium
Protocol: as §3, §1

[39] = system: VRE clinical isolate U464; assay: organism not typed; format: cell-based, E. faecium
Protocol: as §3, §1

[40] = system: VRE clinical isolate U275; assay: organism not typed; format: cell-based, E. faecium
Protocol: as §3, §1

[41] = system: VRE clinical isolate C27282; assay: organism not typed; format: cell-based, E. faecium
Protocol: as §3, §1

[42] = system: VRE clinical isolate U503; assay: organism not typed; format: cell-based, E. faecium
Protocol: as §3, §1

[43] = system: VRE clinical isolate C21190; assay: organism not typed; format: cell-based, E. faecium
Protocol: as §3, §1

[44] = system: VRE clinical isolate S226; assay: organism not typed; format: cell-based, E. faecium
Protocol: as §3, §1

[45] = system: VRE clinical isolate S51; assay: organism not typed; format: cell-based, E. faecium
Protocol: as §3, §1

[46] = system: VRE clinical isolate S557; assay: organism not typed; format: cell-based, E. faecium; details: read-out: MIC
[47] = system: PA1586; assay: MIC, microdilution broth; format: cell-based, P. aeruginosa; details: Pseudomonas aeruginosa
Protocol: as §2, §1

[48] = system: Enterococcus ATCC 29212; assay: organism not typed; format: cell-based, E. faecalis; details: ATCC 29212, E. faecalis; gyrA WT, parC WT; read-out: MIC
[49] = system: VRE clinical isolate S206; assay: organism not typed; format: cell-based, E. faecalis
Protocol: as §3, §1

[50] = system: VRE clinical isolate D1; assay: organism not typed; format: cell-based, E. faecium; details: read-out: MIC
[51] = system: VRE clinical isolate C28036; assay: microbe, parasite or virus in culture; format: cell-based, Ent. Spp.; details: Enterococcus
Protocol: as §3, §1

[52] = system: S. aureus 29213 (WT GyrA and WT ParC); assay: microbe, parasite or virus in culture; format: cell-based; details: Staphylococcus aureus; WT GyrA and WT ParC; read-out: MIC against S. aureus 29213
Protocol: as §1

[53] = system: MRSA clinical isolates; assay: Panel of MRSA clinical isolates (FIG. 2A); format: cell-based, S. aureus; details: n=21, in words
[54] = Staphylococcus aureus, MRSA, read-out: MIC

CC1(C)S[C@@H]2[C@H](NC(=O)[C@H](N)c3ccccc3)C(=O)N2[C@H]1C(=O)O [Amp, Ampicillin, reference compound]
MIC [1]: > 64 µg/mL | MIC [2]: > 64 µg/mL | MIC [3]: > 64 µg/mL | MIC [4]: > 64 µg/mL | MIC [5]: > 64 µg/mL | MIC [6]: > 64 µg/mL | MIC [7]: > 64 µg/mL | MIC [8]: > 64 µg/mL | MIC [9]: > 64 µg/mL | MIC [10]: >64 µg/mL | MIC [11]: 2 µg/mL (≈ 5.72 µM) | MIC [12]: >64 µg/mL | MIC [13]: > 64 µg/mL | MIC [14]: >64 µg/mL | MIC [15]: >64 µg/mL | MIC [16]: > 64 µg/mL | MIC [17]: >64 µg/mL | MIC [18]: > 64 µg/mL | MIC [19]: > 64 µg/mL | MIC [20]: > 64 µg/mL | MIC [21]: > 64 µg/mL | MIC [22]: >64 µg/mL | MIC [23]: 64 µg/mL (≈ 183 µM)

CCCn1c(=O)cc(C)c2cc3c(C)cc(=O)n4c3c(c21)OC4 [DNM-8]
MIC [1]: 0.25 µg/mL (≈ 0.806 µM) | MIC [2]: 0.25 µg/mL (≈ 0.806 µM) | MIC [3]: 0.125 µg/mL (≈ 0.403 µM) | MIC [4]: 0.5 µg/mL (≈ 1.61 µM) | MIC [5]: 0.25 µg/mL (≈ 0.806 µM) | MIC [6]: 0.25 µg/mL (≈ 0.806 µM) | MIC [7]: 0.25 µg/mL (≈ 0.806 µM) | MIC [9]: 0.25 µg/mL (≈ 0.806 µM) | MIC [24]: 1 µg/mL (≈ 3.22 µM) | Solubility in pH 7.4 PBS [25]: 68 μM | MIC [26]: > 32 µg/mL | MIC [27]: > 32 µg/mL | MIC [28]: > 32 µg/mL | sensitivity of VRE clinical isolates [29]: sensitive | MIC [30]: > 32 µg/mL | MIC [31]: > 32 µg/mL | MIC [32]: 16 µg/mL (≈ 51.6 µM) | solubility [33]: 11.3 mM (≈ 3510 µg/mL) | MIC [34]: 0.5 µg/mL (≈ 1.61 µM) | MIC [35]: 2 µg/mL (≈ 6.44 µM) | MIC [36]: 4 µg/mL (≈ 12.9 µM) | MIC [37]: 1 µg/mL (≈ 3.22 µM) | MIC [38]: 4 µg/mL (≈ 12.9 µM) | MIC [39]: 2 µg/mL (≈ 6.44 µM) | MIC [40]: 4 µg/mL (≈ 12.9 µM) | MIC [41]: 8 µg/mL (≈ 25.8 µM) | MIC [42]: 4 µg/mL (≈ 12.9 µM) | MIC [43]: 8 µg/mL (≈ 25.8 µM) | MIC [44]: 1 µg/mL (≈ 3.22 µM) | MIC [45]: 1 µg/mL (≈ 3.22 µM) | MIC [46]: 0.5 µg/mL (≈ 1.61 µM) | MIC [12, 54]: 0.25 µg/mL (≈ 0.806 µM) | MIC [13]: 0.5 µg/mL (≈ 1.61 µM) | MIC [17, 54]: 0.25 µg/mL (≈ 0.806 µM) | MIC [22, 54]: 0.125 µg/mL (≈ 0.403 µM) | MIC [47]: > 32 µg/mL | MIC [48]: 8 µg/mL (≈ 25.8 µM) | MIC [49]: 4 µg/mL (≈ 12.9 µM) | MIC [50]: 0.5 µg/mL (≈ 1.61 µM) | MIC [51]: 1 µg/mL (≈ 3.22 µM) | MIC [52]: 16 µg/mL (≈ 51.6 µM) | sensitivity of MRSA clinical isolates [53]: sensitive
